Source: patent publication US8486996B2, “Aroylfuranes and aroylthiophenes” (Basilea Pharmaceutica AG, priority 2006, dated 2013)
Where two headings read alike, the source gives them in different places.

What was measured:
Type in all cases: cell-based
[1] = Hoechst 33342 nuclear staining (48 h read-out)
Experimental: (§1) A) Hoechst 33342 Nuclear Staining
(§2) This assay is performed in 96 well tissue culture plates. Appropriate number of cells (adherent cells: 3-5*10^3, suspension cells: 8-10*10^3) are being seeded out in 80 μl complete medium. Adherent cells are incubated for 24 h for proper spreading out before addition of test compounds while suspension cells are immediately treated with test compounds after seeding out. The test compounds are added in 20 μl complete medium containing max 5% DMSO. The final compound concentrations in the assays are in the range of 0.001 μM-10 μM. After 24 h or 48 h incubation at culture conditions, 10 μl medium containing Hoechst 33342 dye (Sigma B-2261) at 2-5 μg/ml are added to each well. The assay plates are then further incubated for 30 minutes and subsequently analyzed with a standard inverted fluorescence microscope.
(§3) The readout allows the determination of the fraction of apoptotic nuclei as well as other morphological criteria specific for apoptosis as a function of the treatment. The scores A, B, C and D are explained at the end of the Table.

tumor cells [2] = test: Hoechst 33342 nuclear staining (48 h read-out)
Experimental: as §1, §2, §3

[3] = MTS proliferation assay (72 h read-out); conditions: MRC5 cells
Experimental: (§4) B) MTS Proliferation Assay
(§5) The assay is performed in 96 well tissue culture plates. The cells (range: 1.5*10^3-10^4) are seeded out in 80 μl complete medium 24 h prior to compound treatment. The test compounds are added in 20 μl complete medium containing max 5% DMSO. The final compound concentrations in the assays are in the range of 0.001 μM-10 μM. The assay plates are incubated for 72 h at culture conditions. The MTS reagent is prepared according to the manufacturer's protocol (Promega G1111). 20 μl MTS reagent are added to each well; the assay plates are quickly spun and incubated for another 3 h at culture conditions. Subsequently, the plates are shortly shaked and absorption measured with a microplate-reader at 492 nm. The scores A, B, C and D are explained at the end of the Table.

tumor cells [4] = test: MTS proliferation assay (72 h read-out)
Experimental: as §4, §5

[5] = Mitochondrial membrane potential, JC-1 (read-out 48 h); conditions: PBL, JC-1, 48 h
Experimental: (§6) D) Mitochondrial Membrane Potential
as §2, with “The final compound concentrations in the assays are in the range of 0.001 μM-10 μM.” left out, “JC-1 (Molecular Probes, T-3168)” for “Hoechst 33342 dye (Sigma B-2261)”, “microscope by using the FITC and TRITC filters.” for “microscope.”
(§7) The readout allows the determination of the fraction of cells which show a dissipation of the mitochondrial membrane potential strongly indicating an apoptotic cell death as a function of the treatment. The scores A, B, C and D are explained at the end of the Table.

tumor cells [6] = test: as above; conditions: JC-1, 48 h
Experimental: as §6
as §2, with “The final compound concentrations in the assays are in the range of 0.001 μM-10 μM.” left out, “JC-1 (Molecular Probes, T-3168)” for “Hoechst 33342 dye (Sigma B-2261)”, “microscope by using the FITC and TRITC filters.” for “microscope.”
as §7

[7] = MRC5 cells, read-out: Hoechst 33342 nuclear staining EC50, MRC5
[8] = PBL, read-out: Hoechst 33342 nuclear staining EC50, PBL
[9] = HeLa cells, read-out: Hoechst 33342 nuclear staining EC50, HeLa
[10] = Jily cells, read-out: Hoechst 33342 nuclear staining EC50, Jily
[11] = Jurkat cells, read-out: Hoechst 33342 nuclear staining EC50, Jurkat
[12] = HT1080 cells, read-out: MTS proliferation assay IC50, HT1080
[13] = HeLa cells, read-out: MTS proliferation assay IC50, HeLa
[14] = Jily cells, read-out: MTS proliferation assay IC50, Jily
[15] = Jurkat cells, read-out: MTS proliferation assay IC50, Jurkat
[16] = HeLa cells, read-out: Mitochondrial membrane potential (read-out 48 h) HeLa
[17] = Jily cells, read-out: Mitochondrial membrane potential (read-out 48 h) Jily
[18] = Jurkat cells, read-out: Mitochondrial membrane potential (read-out 48 h) Jurkat
[19] = MCF7 cells, read-out: Mitochondrial membrane potential (read-out 48 h) MCF7

Row | SMILES | EC50 [1, 7] [nM] | EC50 [1, 8] [nM] | EC50 (tumor cells [2]; [9]) [nM] | EC50 (tumor cells [2]; [10]) [nM] | EC50 (tumor cells [2]; [11]) [nM] | IC50 [3] [nM] | IC50 (tumor cells [4]; [12]) [nM] | IC50 (tumor cells [4]; [13]) [nM] | IC50 (tumor cells [4]; [14]) [nM] | IC50 (tumor cells [4]; [15]) [nM] | EC50 [5] [nM] | EC50 (tumor cells [6]; [16]) [nM] | EC50 (tumor cells [6]; [17]) [nM] | EC50 (tumor cells [6]; [18]) [nM] | EC50 (tumor cells [6]; [19]) [nM] | also measured
1 | COc1ccc2oc(C(=O)c3cccnc3-n3ccnc3)cc2c1 [Example 90] | > 1000 | > 1000 | > 1000 | > 1000 | > 1000 | > 1000 | > 1000 | > 1000 | > 1000 | > 1000 | > 1000 | > 1000 | > 1000 | > 1000 | > 1000 | 
2 | CCOc1ccc2oc(C(=O)c3cc(F)ccc3N3CC=CCC3)cc2c1 [Example 111] | 10 to 100 | > 1000 | 10 to 100 | < 10 | < 10 |  |  |  |  |  | > 1000 | 10 to 100 | < 10 | < 10 | 10 to 100 | 
3 | COc1ccccc1C(=O)c1oc2ccc(Cl)cc2c1N [Ref B, reference compound] | > 1000 | > 1000 | > 1000 | 100 to 1000 | 100 to 1000 | 100 to 1000 | 100 to 1000 | 100 to 1000 | 100 to 1000 | 100 to 1000 | 100 to 1000 | > 1000 | 100 to 1000 | 100 to 1000 | > 1000 | 
4 | CCOc1ccc(F)cc1C(=O)c1cc2cc(Oc3ccccn3)ccc2o1 [Example 73] | 100 to 1000 | > 1000 | 100 to 1000 | 100 to 1000 | 100 to 1000 | 100 to 1000 | 100 to 1000 | 100 to 1000 | 100 to 1000 |  | > 1000 | 100 to 1000 | 100 to 1000 | 100 to 1000 | > 1000 | 
5 | COc1ccc2oc(C(=O)c3cc(F)ccc3N3CCCCC3)cc2c1 [Example 95] |  |  |  |  |  | 10 to 100 | 10 to 100 | 10 to 100 | 10 to 100 | 10 to 100 |  |  |  |  |  | 
6 | O=C(c1cc2cc(O)ccc2o1)c1cc(F)ccc1N1CC=CCC1 [Example 112] | 10 to 100 | > 1000 | 10 to 100 | 10 to 100 | 10 to 100 |  |  |  |  |  | > 1000 | 10 to 100 | 10 to 100 | 10 to 100 | 10 to 100 | 
7 | Nc1c(C(=O)c2ccccc2N2CCOCC2)sc2ncc([N+](=O)[O-])cc12 [Example 131] | > 1000 |  | > 1000 |  | > 1000 |  | > 1000 | > 1000 | > 1000 | > 1000 |  | > 1000 | > 1000 | > 1000 | > 1000 | 
8 | Nc1c(C(=O)c2ccccc2N2CCCCC2)sc2ncccc12 [Example 121] | > 1000 |  | > 1000 |  | > 1000 |  | > 1000 | > 1000 | > 1000 | > 1000 |  | > 1000 | > 1000 | > 1000 | > 1000 | 
9 | Cc1cc2c(N)c(C(=O)c3ccccc3N3CCOCC3)sc2nc1C [Example 134] | 100 to 1000 |  | 100 to 1000 |  | 10 to 100 |  | 10 to 100 | 100 to 1000 | 10 to 100 | 10 to 100 |  | 10 to 100 | 10 to 100 | 10 to 100 | > 1000 | 
10 | CCCOc1ccc(F)cc1C(=O)c1sc2ncc(N)cc2c1N [Example 128] | 100 to 1000 | > 1000 | 100 to 1000 |  | 100 to 1000 |  | 100 to 1000 | > 1000 | 100 to 1000 | 100 to 1000 |  | > 1000 | > 1000 | 100 to 1000 | > 1000 | 
11 | Nc1cnc2sc(C(=O)c3cc(F)ccc3N3CCOCC3)c(N)c2c1 [Example 130] | 100 to 1000 |  | 100 to 1000 |  | 100 to 1000 |  | 100 to 1000 | 100 to 1000 | 10 to 100 | 10 to 100 |  | 100 to 1000 | 100 to 1000 | 100 to 1000 | > 1000 | 
12 | CCOc1ccc(F)cc1C(=O)c1sc2nc(C)c(C)cc2c1N [Example 118, 5,6-Dimethyl-3-amino-2-(2′-ethoxy-5′-fluorobenzoyl)-thieno[2,3-b]pyridine] |  |  |  |  |  |  |  |  | 10 to 100 |  |  |  | 10 to 100 |  |  | EC50 ([1]; Homo sapiens, MRC5 cells, read-out: Hoechst 33342 nuclear staining EC50, MRC5): 10 to 100 nM; EC50 (tumor cells [2]; Homo sapiens, HeLa cells, read-out: Hoechst 33342 nuclear staining EC50, HeLa): 10 to 100 nM; EC50 (tumor cells [2]; Homo sapiens, Jurkat cells, read-out: Hoechst 33342 nuclear staining EC50, Jurkat): 10 to 100 nM; IC50 (tumor cells [4]; Homo sapiens, HT-1080, HT1080 cells, read-out: MTS proliferation assay IC50, HT1080): 10 to 100 nM; IC50 (tumor cells [4]; Homo sapiens, HeLa cells, read-out: MTS proliferation assay IC50, HeLa): 10 to 100 nM; IC50 (tumor cells [4]; Homo sapiens, Jurkat cells, read-out: MTS proliferation assay IC50, Jurkat): 10 to 100 nM; EC50 (tumor cells [6]; Homo sapiens, HeLa cells, read-out: Mitochondrial membrane potential (read-out 48 h) HeLa): 100 to 1000 nM; EC50 (tumor cells [6]; Homo sapiens, Jurkat cells, read-out: Mitochondrial membrane potential (read-out 48 h) Jurkat): 10 to 100 nM; EC50 (tumor cells [6]; Homo sapiens, MCF7 cells, read-out: Mitochondrial membrane potential (read-out 48 h) MCF7): > 1000 nM
